Experimental data: patent US8735439B2, “Chlorin e6-folic acid conjugate, preparation method thereof, and a pharmaceutical composition for the treatment of cancer comprising the same” (Diatech Korea Co., Ltd., priority 2009, dated 2014)

Tests used:
sarcoma M-1 = experiment: Growth of sarcoma M-1 after PDT (tumor volume); type: in vivo, rats
Experimental: For this purpose, a laser medical instrument “ ? 680-2000” (BIOSPEC, Moscow) was used to perform the exposure at a wavelength of 670 nm in a dose of 100 J/cm^2. The power density was 0.51 W/cm^2, the output power was 0.4 W, and the spot light diameter was 1 cm. Time of exposure was […]. Monitoring over radiating power was conducted by a universal power meter included in the laser device “ ? 4680-2000”.

Hela cells = experiment: Competition assay with exogenous folic acid, uptake in Hela cells; type: cell-based; conditions: 4 μM/l folic acid, 24 hours
Source text: Then, the sample was centrifuged, the supernatant was taken, and the pellet was rewashed with cooled Hank's solution. The obtained pellet was again transferred into Hank's solution.

[1] = Photophysical parameters (triplet state, intercombinative conversion) of chlorin e6 conjugate; type: physicochemical
Experimental: Values of Δ ? and Δ ? were determined after substantially transferring of all molecules of the studied substance in excited triplet state. In such conditions, ΔD=CΔεTl, wherein C indicates the molar concentration of the substance in solution, and l indicates the length of the optical way. As the standard to estimate γ, Pd(II)-octa ethyl porphyrin (Pd (II)-OEP) was selected, for which the γ value in benzol was considered as equal to one.

Substance: [γ-(6-aminohexyl)folic acid]-chlorin e6 [chlorin e6 conjugate]
- Growth inhibition rate of sarcoma M-1 in volume to the control (sarcoma M-1; 2.5 mg/100 g + 100 J/cm^2 for 1 h, day 7): 47.5%
- Growth inhibition rate of sarcoma M-1 in volume to the control (sarcoma M-1; 2.5 mg/100 g + 100 J/cm^2 for 1 h, day 10): 79.4%
- Growth inhibition rate of sarcoma M-1 in volume to the control (sarcoma M-1; 2.5 mg/100 g + 100 J/cm^2 for 1 h, day 12): 87.6%
- Growth inhibition rate of sarcoma M-1 in volume to the control (sarcoma M-1; 2.5 mg/100 g + 100 J/cm^2 for 1 h, day 14): 89.8%
- Growth inhibition rate of sarcoma M-1 in volume to the control (sarcoma M-1; 2.5 mg/100 g + 100 J/cm^2 for 1 h, day 17): 94.8%
- Growth inhibition rate of sarcoma M-1 in volume to the control (sarcoma M-1; 2.5 mg/100 g + 100 J/cm^2 for 1 h, day 19): 94.1%
- Growth inhibition rate of sarcoma M-1 in volume to the control (sarcoma M-1; 2.5 mg/100 g + 100 J/cm^2 for 1 h, day 21): 94.2%
- Growth inhibition rate of sarcoma M-1 in volume to the control (sarcoma M-1; 2.5 mg/100 g + 100 J/cm^2 for 1 h, day 24): 93.6%
- volume of sarcoma M-1 (sarcoma M-1; 2.5 mg/kg + 100 J/cm^2 for 1 h, day 7 after tumor transplant): 0.25 ± 0.03 cm^3
- volume of sarcoma M-1 (sarcoma M-1; 2.5 mg/kg + 100 J/cm^2 for 1 h, day 10): 0.28 ± 0.03 cm^3
- volume of sarcoma M-1 (sarcoma M-1; 2.5 mg/kg + 100 J/cm^2 for 1 h, day 12): 0.34 ± 0.06 cm^3
- volume of sarcoma M-1 (sarcoma M-1; 2.5 mg/kg + 100 J/cm^2 for 1 h, day 14): 0.41 ± 0.09 cm^3
- volume of sarcoma M-1 (sarcoma M-1; 2.5 mg/kg + 100 J/cm^2 for 1 h, day 17): 0.46 ± 0.11 cm^3
- volume of sarcoma M-1 (sarcoma M-1; 2.5 mg/kg + 100 J/cm^2 for 1 h, day 19): 0.69 ± 0.27 cm^3
- volume of sarcoma M-1 (sarcoma M-1; 2.5 mg/kg + 100 J/cm^2 for 1 h, day 21): 0.96 ± 0.38 cm^3
- volume of sarcoma M-1 (sarcoma M-1; 2.5 mg/kg + 100 J/cm^2 for 1 h, day 24): 1.19 ± 0.48 cm^3
- Growth inhibition rate of sarcoma M-1 in volume to the control (sarcoma M-1; 5 mg/100 g + 100 J/cm^2 for 1 h, day 7): 36.9%
- Growth inhibition rate of sarcoma M-1 in volume to the control (sarcoma M-1; 5 mg/100 g + 100 J/cm^2 for 1 h, day 10): 77.9%
- Growth inhibition rate of sarcoma M-1 in volume to the control (sarcoma M-1; 5 mg/100 g + 100 J/cm^2 for 1 h, day 12): 89.1%
- Growth inhibition rate of sarcoma M-1 in volume to the control (sarcoma M-1; 5 mg/100 g + 100 J/cm^2 for 1 h, day 14): 92.6%
- Growth inhibition rate of sarcoma M-1 in volume to the control (sarcoma M-1; 5 mg/100 g + 100 J/cm^2 for 1 h, day 17): 95.8%
- Growth inhibition rate of sarcoma M-1 in volume to the control (sarcoma M-1; 5 mg/100 g + 100 J/cm^2 for 1 h, day 19): 95.9%
- Growth inhibition rate of sarcoma M-1 in volume to the control (sarcoma M-1; 5 mg/100 g + 100 J/cm^2 for 1 h, day 21): 96.9%
- Growth inhibition rate of sarcoma M-1 in volume to the control (sarcoma M-1; 5 mg/100 g + 100 J/cm^2 for 1 h, day 24): 97.1%
- volume of sarcoma M-1 (sarcoma M-1; 5 mg/kg + 100 J/cm^2 for 1 h, day 7 after tumor transplant): 0.29 ± 0.02 cm^3
- volume of sarcoma M-1 (sarcoma M-1; 5 mg/kg + 100 J/cm^2 for 1 h, day 10): 0.300 ± .03 cm^3
- volume of sarcoma M-1 (sarcoma M-1; 5 mg/kg + 100 J/cm^2 for 1 h, day 12): 0.30 ± 0.03 cm^3
- volume of sarcoma M-1 (sarcoma M-1; 5 mg/kg + 100 J/cm^2 for 1 h, day 14): 0.30 ± 0.03 cm^3
- volume of sarcoma M-1 (sarcoma M-1; 5 mg/kg + 100 J/cm^2 for 1 h, day 17): 0.37 ± 0.05 cm^3
- volume of sarcoma M-1 (sarcoma M-1; 5 mg/kg + 100 J/cm^2 for 1 h, day 19): 0.47 ± 0.11 cm^3
- volume of sarcoma M-1 (sarcoma M-1; 5 mg/kg + 100 J/cm^2 for 1 h, day 21): 0.50 ± 0.14 cm^3
- volume of sarcoma M-1 (sarcoma M-1; 5 mg/kg + 100 J/cm^2 for 1 h, day 24): 0.54 ± 0.17 cm^3
- Growth inhibition rate of sarcoma M-1 in volume to the control (sarcoma M-1; 10 mg/100 g + 100 J/cm^2 for 1 h, day 7): 56.5%
- Growth inhibition rate of sarcoma M-1 in volume to the control (sarcoma M-1; 10 mg/100 g + 100 J/cm^2 for 1 h, day 10): 86.0%
- Growth inhibition rate of sarcoma M-1 in volume to the control (sarcoma M-1; 10 mg/100 g + 100 J/cm^2 for 1 h, day 12): 93.8%
- Growth inhibition rate of sarcoma M-1 in volume to the control (sarcoma M-1; 10 mg/100 g + 100 J/cm^2 for 1 h, day 14): 95.8%
- Growth inhibition rate of sarcoma M-1 in volume to the control (sarcoma M-1; 10 mg/100 g + 100 J/cm^2 for 1 h, day 17): 98.1%
- Growth inhibition rate of sarcoma M-1 in volume to the control (sarcoma M-1; 10 mg/100 g + 100 J/cm^2 for 1 h, day 19): 95.2%
- Growth inhibition rate of sarcoma M-1 in volume to the control (sarcoma M-1; 10 mg/100 g + 100 J/cm^2 for 1 h, day 21): 98.8%
- Growth inhibition rate of sarcoma M-1 in volume to the control (sarcoma M-1; 10 mg/100 g + 100 J/cm^2 for 1 h, day 24): 98.9%
- volume of sarcoma M-1 (sarcoma M-1; 10 mg/kg + 100 J/cm^2 for 1 h, day 7 after tumor transplant): 0.20 ± 0.03 cm^3
- volume of sarcoma M-1 (sarcoma M-1; 10 mg/kg + 100 J/cm^2 for 1 h, day 10): 0.19 ± 0.04 cm^3
- volume of sarcoma M-1 (sarcoma M-1; 10 mg/kg + 100 J/cm^2 for 1 h, day 12): 0.17 ± 0.03 cm^3
- volume of sarcoma M-1 (sarcoma M-1; 10 mg/kg + 100 J/cm^2 for 1 h, day 14): 0.17 ± 0.03 cm^3
- volume of sarcoma M-1 (sarcoma M-1; 10 mg/kg + 100 J/cm^2 for 1 h, day 17): 0.17 ± 0.03 cm^3
- volume of sarcoma M-1 (sarcoma M-1; 10 mg/kg + 100 J/cm^2 for 1 h, day 19): 0.17 ± 0.03 cm^3
- volume of sarcoma M-1 (sarcoma M-1; 10 mg/kg + 100 J/cm^2 for 1 h, day 21): 0.20 ± 0.03 cm^3
- volume of sarcoma M-1 (sarcoma M-1; 10 mg/kg + 100 J/cm^2 for 1 h, day 24): 0.20 ± 0.03 cm^3
- inhibition rate of tumor volumetric growth compared to the control (sarcoma M-1; rats with sarcoma M-1, monitored for 24 days after PDT): 86.34-99.1%
- effect of free folic acid on uptake in Hela cells (Hela cells): significantly reduced the uptake
- Δε^T ([1]; H2O, pH 8.1): 278 dm^3 mol^−1 cm^−1
- γ (photoresponse of intercombinative conversion) ([1]; H2O, pH 8.1): 0.8
- τt (triplet lifetime, oxygen saturated) ([1]; H2O, pH 8.1): 2.5 μs
- τt^0 (triplet lifetime, deoxygenated) ([1]; H2O, pH 8.1): 170 μs
- Δε^T ([1]; HSA, H2O, pH 8.1): 798 dm^3 mol^−1 cm^−1
- γ (photoresponse of intercombinative conversion) ([1]; HSA, H2O, pH 8.1): 0.82
- τt (triplet lifetime, oxygen saturated) ([1]; HSA, H2O, pH 8.1): 14.7 μs
- τt^0 (triplet lifetime, deoxygenated) ([1]; HSA, H2O, pH 8.1): 700 μs
- Δε^T ([1]; Liposomes, H2O, pH 8.1): 251 dm^3 mol^−1 cm^−1
- γ (photoresponse of intercombinative conversion) ([1]; Liposomes, H2O, pH 8.1): 0.78
- τt (triplet lifetime, oxygen saturated) ([1]; Liposomes, H2O, pH 8.1): 1.4 μs
- τt^0 (triplet lifetime, deoxygenated) ([1]; Liposomes, H2O, pH 8.1): 70 μs
- Δε^T ([1]; Pyridine): 94 dm^3 mol^−1 cm^−1
- γ (photoresponse of intercombinative conversion) ([1]; Pyridine): 0.81
- τt (triplet lifetime, oxygen saturated) ([1]; Pyridine): 0.3 μs
- τt^0 (triplet lifetime, deoxygenated) ([1]; Pyridine): 140 μs
- τt (triplet lifetime, oxygen saturated) ([1]; Triton X-100): 2.6 μs
- τt^0 (triplet lifetime, deoxygenated) ([1]; Triton X-100): 230 μs
- γ (photoresponse of intercombinative conversion) ([1]; practically similar in all the systems): ≈ 0.7
